Results taken from patent US20210137935A1, “CORTICOTROPIN RELEASING FACTOR RECEPTOR ANTAGONISTS” (Spruce Biosciences, Inc., priority 2017, published 2021).
In brackets after ≈: the same amount, converted by molar mass.

What was measured:
[1] = Study 2 Part A: multiple-dose (14 days) pharmacokinetics in healthy adult volunteers; format: in vivo, human; conditions: for Cmax: fed; for Effective t1/2: half-life calculated by accumulation ratio; for Tmax: median; for WT-norm Claa/F: weight normalized
Experimental: (§1) The 2-part multiple-dose study, Study 2, determined the safety and tolerability of repeated daily doses of Compound 1 and investigated the effects on biomarkers of relevance for the treatment of alcohol dependence.
PK were also evaluated in the multiple-dose, dose-escalation study, Study 2. In Part A of the study, subjects were divided into 3 cohorts and received 50, 150, or 200 mg Compound 1 or placebo for 14 consecutive days (at least 6 subjects received Compound 1 and 2 subjects received placebo in each cohort). […] All dosing occurred in the fed state. An assessment of diurnal cortisol levels, plus when under conditions of glucose clamp, were also carried out both prior to and during the dosing period.
Consistent with the single-dose study (Study 1), concentrations appeared to decline in a bi-exponential manner, characterized by a rapid decrease within the first 24 hours. […] The Tmax appeared to be consistent across doses. Overall half-lives, weight normalized CL/F and V/F were consistent for 150 and 200 mg. However, the values for these latter 2 parameters were almost doubled at the 50-mg dose level. Variability (CV %) for apparent clearance and volume of distribution were large and not reduced with weight-normalization.
Table 8 presents the results of the dose proportionality assessment for the AUC0-24 and Cmax over the tested dose range.

[2] = test system: Androstenedione; experiment: Phase 2 study in adults with classic CAH: Androstenedione; format: in vivo, human; conditions: patients with classic CAH
From the text: (§2) Cohort A of the Phase 2 Study includes a 6-week, multiple-dose, dose escalation study of Compound 1 for the treatment of adults with classic CAH. After screening, eligible patients will be enrolled into a 6-week treatment period followed by a 4-week washout/safety follow-up period.
(§3) This cohort will be conducted in approximately 9 patients, who will receive Compound 1 daily for up to 6 weeks. Compound 1 will be administered as an oral daily dose. Patients will undergo titration of Compound 1 through three escalating dosage strengths at 2-week intervals. Patients will have overnight PK/PD assessments performed at baseline, which include an pre-dose overnight assessment and a post-dose overnight assessment for PK/PD following administration of the first dose. At the end of each 2-week dosing period, patients will return for single overnight visits for steady-state PK/PD assessments. A follow-up outpatient visit will occur 30 days after their last dose. Upon completion of the initial cohort (Cohort A), the study will proceed to a multiple ascending dose (MAD) design with up to 3 sequential cohorts (Cohorts B, C, and D) to further evaluate the safety, PK, and PD of various SPR001 dosing regimens and to identify an optimal dose regimen. Each cohort will undergo a 2-week run-in period, a 2-week treatment period, and a 30-day washout and safety follow-up period. During the run-in period, which will occur during screening, subjects will document in a paper diary each dose of glucocorticoid medication taken, the time of each meal, and the time they went to bed and woke up each day, to ensure compliance with background glucocorticoid regimens and the stability of their daily routine.
(§4) • 3. To explore the dose(s) of Compound 1 that cause pharmacodynamics changes in plasma concentrations of ACTH, androstenedione, and testosterone, as measured by the absolute and percent change from baseline by dose. • 4. To determine pharmacokinetics of Compound 1 in subjects with CAH. • 5. To explore potential relationships between pharmacodynamics and pharmacokinetics. […]

[3] = Phase 1 safety and tolerability (Study 1 and Study 2); format: in vivo, human; conditions: healthy subjects
From the text: (§5) Study 1 was the first-in-human study that investigated the safety, tolerability, and PK of single-escalating doses of Compound 1, given orally, to healthy adult subjects. […] The data from this study were used for the selection of doses for Study 2.
as §1
The safety of Compound 1 was evaluated in 2 Phase 1 studies in healthy adult volunteers (Study 1 and Study 2). In both studies, adverse events (AEs), clinical laboratory tests, vital signs (supine blood pressure and pulse rate), and electrocardiograms (ECGs) were evaluated. Overall, in Study 1, Compound 1 was well-tolerated.

[4] = test system: ACTH; experiment: Phase 2 study in adults with classic CAH: ACTH; format: in vivo, human; conditions: patients with classic CAH
From the text: as §2, §3, §4

[5] = Solubility in different aqueous media (24 hour at room temperature); format: physicochemical
[6] = Study 1: single-escalating oral dose pharmacokinetics in healthy adult subjects; format: in vivo, human; conditions: for Cmax / AUC0-tlast / AUC0-∞ / CL/F / t1/2: geometric mean
Experimental: as §5
In Study 1, Compound 1 was administered to healthy adult subjects as a single PO dose of 2, 10, 50, 150, 400, or 800 mg in the fed state and 150 mg in the fasted state. Absorption occurred moderately late, achieving peak Cmax between 4 to 6 hours following dosing in the fed state.
When Compound 1 was given in the fed state, median time to reach maximum plasma concentration (Tmax) occurred between 4 and 6 hours.
As part of this single-dose escalation study, a food effect PK investigation was performed to examine Compound 1 exposures in both the fed and fasted states at the 150-mg dose level. A total of 6 subjects were administered 150 mg Compound 1 in each of these 2 dosing groups. Of these 6 subjects, 4 subjects received Compound 1 at the same dose in both fed and fasted states. […] Table 6 provides a summary of the PK parameters at the 150-mg dose level under both fed and fasted state conditions.
PK parameters AUC0-∞ and Cmax were analyzed separately for dose proportionality for Compound 1 from 50 to 800 mg when administered in the fed state. […] Dose proportionality across administered doses in the fed state could not be concluded on the basis of AUC0-∞ or Cmax.

[7] = Phase 2 study in adults with classic CAH: safety; format: in vivo, human; conditions: patients with CAH, 5-fold range of doses
From the text: as §2
as §3, with “Each cohort will undergo a 2-week run-in period, a 2-week treatment period, and a 30-day washout and safety follow-up period. During the run-in period, which will occur during screening, subjects will document in a paper diary each dose of glucocorticoid medication taken, the time of each meal, and the time they went to bed and woke up each day, to ensure compliance with background glucocorticoid regimens and the stability of their daily routine.” left out
• 1. […] To assess the efficacy of Compound 1 in subjects with classic CAH as measured by percent and absolute change in 17-OHP compared to baseline. […]

[8] = test system: 17-OHP; experiment: Phase 2 study in adults with classic CAH: 17-OHP; format: in vivo, human; conditions: patients with classic CAH
From the text: as §2, §3
• 1. To evaluate the safety of Compound 1 in subjects with CAH. • 2. To assess the efficacy of Compound 1 in subjects with classic CAH as measured by percent and absolute change in 17-OHP compared to baseline.
This allows for steroid taper. […] 50% of subjects were within the guideline range (1200 ng/dL) after treatment.

[9] = 50 mg daily, Day 14, geometric mean
[10] = 150 mg daily, Day 14, geometric mean
[11] = 200 mg daily, Day 14, geometric mean
[12] = single oral dose 150 mg, fasted

Cmax [1, 9]: 50.3 ng/mL
AUC0-24 h [1, 9]: 273 ng·h/mL
AUC0-∞ [1, 9]: 980 ng·h/mL
CLaa/F [1, 9]: 183 L/h
Cavg [1, 9]: 11.4 ng/mL
Effective t1/2 [1, 9]: 37.7 h
Tmax ([1]; 50 mg daily, Day 14): 5.00 h
WT-norm Claa/F [1, 9]: 48 mL/min/kg
RA (accumulation ratio, Day 14 AUC0-24/Day 1 AUC0-24) ([1]; 50 mg daily, geometric mean): 2.80
Cmax ([1]; 50 mg, Day 1, geometric mean): 22.7 ng/mL
AUC0-24 h ([1]; 50 mg, Day 1, geometric mean): 97.6 ng·h/mL
Tmax ([1]; 50 mg, Day 1): 4.52 h
Cmax [1, 10]: 222 ng/mL
AUC0-24 h [1, 10]: 1480 ng·h/mL
AUC0-∞ [1, 10]: 4680 ng·h/mL
CLaa/F [1, 10]: 101 L/h
Cavg [1, 10]: 61.7 ng/mL
Effective t1/2 [1, 10]: 32.7 h
Tmax ([1]; 150 mg daily, Day 14): 5.00 h
WT-norm Claa/F [1, 10]: 23.7 mL/min/kg
RA (accumulation ratio, Day 14 AUC0-24/Day 1 AUC0-24) ([1]; 150 mg daily, geometric mean): 2.51
Cmax ([1]; 150 mg, Day 1, geometric mean): 127 ng/mL
AUC0-24 h ([1]; 150 mg, Day 1, geometric mean): 590 ng·h/mL
Tmax ([1]; 150 mg, Day 1): 5.00 h
Cmax [1, 11]: 314 ng/mL
AUC0-24 h [1, 11]: 2040 ng·h/mL
AUC0-∞ [1, 11]: 5660 ng·h/mL
CLaa/F [1, 11]: 98 L/h
Cavg [1, 11]: 85.0 ng/mL
Effective t1/2 [1, 11]: 52.0 h
Tmax ([1]; 200 mg daily, Day 14): 5.00 h
WT-norm Claa/F [1, 11]: 25 mL/min/kg
RA (accumulation ratio, Day 14 AUC0-24/Day 1 AUC0-24) ([1]; 200 mg daily, geometric mean): 3.65
Cmax ([1]; 200 mg, Day 1, geometric mean): 143 ng/mL
AUC0-24 h ([1]; 200 mg, Day 1, geometric mean): 559 ng·h/mL
Tmax ([1]; 200 mg, Day 1): 5.00 h
Vd/F at 14 days ([1]; human, plasma, oral, 50 mg daily, Day 14, geometric mean, read-out: Vz/F): 33500 L
Solubility Description ([5]; 0.001N HCl, equilibrium pH 3.36): Insoluble
Solubility Description ([5]; 0.01N HCl, equilibrium pH 2.06): Insoluble
Solubility Description ([5]; 0.1N HCl, equilibrium pH 1.06): insoluble
Solubility Description ([5]; 0.1N NaOH, equilibrium pH 11.65): Insoluble
Solubility Description ([5]; FaSSIF, equilibrium pH 5.16): insoluble
Solubility Description ([5]; FaSSIF, equilibrium pH 6.73): Insoluble
Solubility Description ([5]; SGF, equilibrium pH 2.25): Insoluble
Solubility Description ([5]; Water, equilibrium pH 7.78): insoluble
Solubility Description ([5]; pH 4.5 Acetate (USP), equilibrium pH 4.65): Insoluble
Solubility Description ([5]; pH 6.0 Phosphate (USP), equilibrium pH 6.08): Insoluble
Solubility Description ([5]; pH 7.5 Phosphate (USP), equilibrium pH 7.57): Insoluble
Solubility ([5]; pH 7.5 Phosphate (USP), equilibrium pH 7.57, n = 2, 24 hour, room temperature): 0.6 µg/mL (≈ 1.43 µM)
solubility at 24 h ([5]; water, thermodynamic from solid): < 2 µg/mL
increase of AUC0-∞ for every doubling of dose, relative to dose proportionality ([6]; 50 to 800 mg, fed state): 1.74 times
mean AUC0-∞, fed state relative to fasted state ([6]; 150-mg dose, fed vs fasted): approximately 3 fold
mean Cmax, fed state relative to fasted state ([6]; 150-mg dose, fed vs fasted): ~11 fold
half-life ([6]; human, plasma, single PO dose, fed and fasted state, overall range, read-out: half-life (t1/2), range): 11 to 101 h
Tmax ([6]; human, plasma, single oral dose 150 mg, fasted state, range, read-out: Tmax, range): 6 to 12 h
Tmax ([6]; single oral dose 2 mg, fed, median): 6.00 h
Cmax ([6]; single oral dose 2 mg, fed, plasma): 0.867 ng/mL
Tmax ([6]; single oral dose 10 mg, fed, median): 4.00 h
Cmax ([6]; single oral dose 10 mg, fed, plasma): 3.01 ng/mL
AUC0-tlast ([6]; single oral dose 50 mg, fed): 152 ng·h/mL
AUC0-∞ ([6]; single oral dose 50 mg, fed): 165 ng·h/mL
CL/F ([6]; single oral dose 50 mg, fed): 302 L/h
t1/2 ([6]; single oral dose 50 mg, fed): 31 h
Tmax ([6]; single oral dose 50 mg, fed, median): 4.00 h
Cmax ([6]; single oral dose 50 mg, fed, plasma): 19.5 ng/mL
AUC0-tlast [6, 12]: 288 ng·h/mL
AUC0-∞ [6, 12]: 331 ng·h/mL
CL/F [6, 12]: 454 L/h
t1/2 [6, 12]: 38.4 h
Tmax ([6]; single oral dose 150 mg, fasted, median): 10.05 h
Cmax ([6]; single oral dose 150 mg, fasted, plasma): 8.22 ng/mL
AUC0-tlast ([6]; single oral dose 150 mg, fed): 891 ng·h/mL
AUC0-∞ ([6]; single oral dose 150 mg, fed): 956 ng·h/mL
CL/F ([6]; single oral dose 150 mg, fed): 157 L/h
t1/2 ([6]; single oral dose 150 mg, fed): 29.2 h
Tmax ([6]; single oral dose 150 mg, fed, median): 4.00 h
Cmax ([6]; single oral dose 150 mg, fed, plasma): 93.4 ng/mL
AUC0-tlast ([6]; single oral dose 400 mg, fed): 2300 ng·h/mL
AUC0-∞ ([6]; single oral dose 400 mg, fed): 2580 ng·h/mL
CL/F ([6]; single oral dose 400 mg, fed): 155 L/h
t1/2 ([6]; single oral dose 400 mg, fed): 44.2 h
Tmax ([6]; single oral dose 400 mg, fed, median): 4.00 h
Cmax ([6]; single oral dose 400 mg, fed, plasma): 207 ng/mL
AUC0-tlast ([6]; single oral dose 800 mg, fed): 4390 ng·h/mL
AUC0-∞ ([6]; single oral dose 800 mg, fed): 4850 ng·h/mL
CL/F ([6]; single oral dose 800 mg, fed): 165 L/h
t1/2 ([6]; single oral dose 800 mg, fed): 41.9 h
Tmax ([6]; single oral dose 800 mg, fed, median): 6.00 h
Cmax ([6]; single oral dose 800 mg, fed, plasma): 382 ng/mL
Compound: CCC(CC)c1cc(C)nc2c(-c3sc(N4CCOCC4)nc3Cl)c(C)nn12 [Compound 1, 3-(4-Chloro-2-(morpholin-4-yl)thiazol-5-yl)-7-(1-ethylpropyl)-2,5-dimethylpyrazolo(1,5-a)pyrimidine]
subjects with more than 25% reduction in Androstenedione [2]: 60%
subjects within normal reference range (Androstenedione) after treatment [2]: 50%
subjects with reduction in Androstenedione ([2]; at various doses): 100%
tolerability ([3]; Study 1, single oral doses up to 800 mg): well-tolerated
tolerability ([3]; Study 2, multiple doses up to 200 mg): generally well tolerated
subjects in the normal range (ACTH) after treatment [4]: 40%
subjects with more than 25% reduction in ACTH [4]: 70%
subjects with reduction in ACTH [4]: 80%
tolerability [7]: generally well-tolerated
subjects with more than 25% reduction in 17-OHP [8]: 50%
subjects with reduction in 17-OHP [8]: 80%
subjects within the guideline range (1200 ng/dL) of 17-OHP after treatment [8]: 50%
